Measured values as given in patent US7390830B1, “Remedies or prophylactics for diseases in association with chemokines” (Teijin Limited, priority 1999, dated 2008).

Tests used:
[1] = target: T1, human MCP-1 binding to THP-1 cells (Homo sapiens, UniProt P41597); assay: Inhibitory activity against binding of [125I]-labeled human MCP-1 to THP-1 cells (method 1); conditions: concentration of 10 μM
T1 construct: endogenous in cells; host or cells: THP-1 (whole cells)
T1 sequence (P41597 1-360 isoform P41597-2): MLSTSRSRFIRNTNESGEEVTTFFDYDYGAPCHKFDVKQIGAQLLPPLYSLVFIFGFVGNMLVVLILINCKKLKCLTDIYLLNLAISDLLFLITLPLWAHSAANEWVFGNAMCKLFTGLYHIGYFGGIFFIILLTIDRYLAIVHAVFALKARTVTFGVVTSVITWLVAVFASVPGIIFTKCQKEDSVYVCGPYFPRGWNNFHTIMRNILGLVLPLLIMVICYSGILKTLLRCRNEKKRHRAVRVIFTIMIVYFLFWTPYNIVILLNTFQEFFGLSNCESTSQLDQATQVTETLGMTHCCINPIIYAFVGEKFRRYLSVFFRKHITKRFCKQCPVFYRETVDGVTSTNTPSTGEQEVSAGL
From the text: Two kinds of DNA synthetic primers (5′-[…]-3′ (SEQ ID NO:1) and 5′-[…]-3′) (SEQ ID NO:2) having restriction enzyme recognition sites applied on the basis of the known human MCP-1 gene sequence (see, for example, Yoshimura, T. et al. FEBS Letters 1989, 244, 487-493) were used to amplify a cDNA derived from human vascular endothelial cells (purchased from Kurabow) according to a PCR method. The amplified fragment was cleaved with restriction enzymes (PstI and XbaI) and then ligated into a transfer vector pVL1393 (Invitrogen Co.). The resulting vector was co-transfected with an infectious baculovirus into Sf-9 insect cells. […]
(§1) After completing the reaction, the reaction solution was filtered through a filter, and the filter was washed with 200 μL of cold PBS twice (the reaction solution was filtered after adding 200 μL of the cold PBS). The filter was air-dried and 25% L of liquid scintillator was then added into each well to count the radioactivity retained by the cells on the filter using TopCount (Packard Instrument Co.).
(§2) The count when 100 ng of the above human MCP-1 expressed with baculovirus (unlabeled) instead of the test compound was added was subtracted as nonspecific adsorption, and the count when the test compound was not added was taken as 100%. Thereby, the inhibitory activity of the test compound against binding of the human MCP-1 to THP-1 cells was calculated. […]

[2] = system: collagen-induced arthritis; assay: Collagen-induced arthritis in mice; assay type: in vivo, DBA/1 mice
[3] = system: glomerulonephritis induced by anti-glomerular basement membrane serum; assay: Masugi's nephritis model in WKY rats; assay type: in vivo; conditions: for inhibition of the concentration of urinary proteins / decrease of creatinine concentration in blood: vs control; for decrease of creatinine concentration in blood: 15th day after antiserum
Description: Rabbits were immunized with a trypsin fraction of rat kidney cortex to provide an anti-glomerular basement membrane serum which was intravenously injected to 4-weeks-old female WKY rats (Charles River) in a dose of 2.5 mL/kg body weight to induce glomerulonephritis. After injection of the antiserum, urine of each animal was collected for 24 hours with metabolic cages for rats (Clea Japan, Inc.) on the 1st, 4th, 7th, 10th and 14th days after the injection. The amount of the urine was measured by urine weight and the protein content in the urine was measured by using a kit for assaying proteins in urine and cerebrospinal fluid (Tonein TP-II, Otsuka Pharmaceutical Co., Ltd.) to determine the amount of proteins excreted in urine per day. Serum of the animals subjected to the experiments was collected on the 15th day after injecting the antiserum, and creatinine concentration in blood was measured with a creatinine assay kit (Autosera®), Daiichi Pure Chemicals Co., Ltd.) using a Hitach±7070 model autoanalyzer. The test compound was daily orally administered in a dose of 100 mg/kg body weight twice a day from the date of injecting the anti-glomerular basement membrane serum (about 10:00 a.m. and about 6:00 p.m. in Experiment 1 and about 10:00 a.m. and about 5:00 p.m. in Experiment 2). In the control group, only the solution (a 0.5% aqueous solution of sodium carboxymethylcellulose) was orally administered. The administration volume was 10 mL/kg body weight, and the number of animals (N) was 10.

[4] = system: chronic relapsing experimental allergic encephalomyelitis; assay: Chronic relapsing experimental allergic encephalomyelitis in mice; assay type: in vivo, SJL/J×PL/J F1 mice; conditions: for Onset Date, First Attack: SJL/J×PL/J F1 mice; for Onset Date, First Attack / Duration of Clinical Sign, First Attack / Onset Date, Second Attack (Relapse): to 41 days after injection of the emulsion; for Maximal Clinical Score, First Attack / Maximal Clinical Score, Second Attack (Relapse): score 0-5, to 41 days after injection of the emulsion
[5] = target: T2, human MIP-1 α binding to THP-1 cells (Homo sapiens, UniProt P32246); assay: Inhibitory activity against binding of MIP-1 α to THP-1 cells; conditions: concentration of 2 μM
T2 construct: endogenous in cells; host or cells: THP-1 (whole cells)
T2 sequence (P32246 1-355): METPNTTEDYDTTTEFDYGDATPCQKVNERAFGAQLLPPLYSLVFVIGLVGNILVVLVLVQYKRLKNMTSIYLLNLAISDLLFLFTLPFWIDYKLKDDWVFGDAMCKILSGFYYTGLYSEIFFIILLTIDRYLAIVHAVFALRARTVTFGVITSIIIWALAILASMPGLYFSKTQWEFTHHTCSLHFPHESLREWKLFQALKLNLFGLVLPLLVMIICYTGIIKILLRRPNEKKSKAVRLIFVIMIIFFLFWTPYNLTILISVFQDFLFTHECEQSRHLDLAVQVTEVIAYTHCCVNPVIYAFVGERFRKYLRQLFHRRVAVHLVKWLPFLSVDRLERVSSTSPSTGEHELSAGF
Description: THP-1 cells which are human monocytic leukemia cell line were suspended in an assay buffer [prepared by adding 0.1% of BSA and 25 mM of HEPES to RPMI-1640 (Gibco-BRL Co.) and adjusting the pH to 7.4] so as to provide 1×10^7 cells/mL to thereby afford a cell suspension. A solution obtained by diluting the test compound with the assay buffer was used as a test compound solution. A solution prepared by diluting an iodine-labeled human MIP-1 α (DuPont NEN Co.) with the assay buffer so as to provided 250 nCi/mL was used as a labeled ligand solution. […]
as §1, with “air-dried,” for “air-dried”, “25 μL” for “25% L”
as §2, with “an unlabeled” for “the above”, “MIP-1 α (Peprotech Co.)” for “MCP-1 expressed with baculovirus (unlabeled)”, “MIP-1 α” for “MCP-1”

[6] = system: collagen-induced arthritis; assay: Collagen-induced arthritis in rats; assay type: in vivo, Lewis female rats; conditions: 300 mg/kg orally every day for 3 weeks, 5, 7, 9, 12 and 14 days after boosting
[7] = 7th day after antiserum, 100 mg/kg orally twice a day
[8] = 10th day after antiserum, 100 mg/kg orally twice a day
[9] = 14th day after antiserum, 100 mg/kg orally twice a day
[10] = 100 mg/kg body weight orally, vs control
[11] = 300 mg/kg body weight oral, to 21 days after injection of the emulsion
[12] = 300 mg/kg body weight orally, vs control

For `O=C(CNC(=O)c1cccc(C(F)(F)F)c1)NCC1CCN(Cc2cccc(OC(F)(F)F)c2)CC1` [Compd. No. 927, 1-[3-(trifluoromethoxy)benzyl]-4-[(N-(3-(trifluoromethyl)benzoyl)glycyl)aminomethyl]piperidine], the inhibition at 10 µM [1] was 20 to 50%.
In the case of `Nc1ccc(C(F)(F)F)cc1C(=O)NCC(=O)N[C@@H]1CCN(Cc2ccc(Cl)cc2)C1` [Compd. No. 1583], the “chondrolysis of articular cartilages” value ([2]; knee joint, oral 12 weeks) is reported as “significantly inhibited”, the “osteolysis of subchondral bone” value ([2]; knee joint, oral 12 weeks) is reported as “significantly inhibited” and the synovial hyperplasia ([2]; knee joint, oral 12 weeks) is reported as “significantly inhibited”. The arthritis scores ([2]; orally once a day for 12 weeks, vs control group) was “significantly inhibited arthritis scores”, the “inhibition of the concentration of urinary proteins” value (from here on “inhibition … of urinary proteins”) [3, 7] was 26% and the “inhibition … of urinary proteins” value [3, 8] was 51%. The “inhibition … of urinary proteins” value [3, 9] was 54%, the “decrease of creatinine concentration in blood” value ([3]; 100 mg/kg orally twice a day) was 20% and the “Serum Creatinine Concentration” value ([3]; on the 15th Day, 100 mg/kg orally twice a day) was 0.39 ± 0.03 mg/dL. The “Onset Date, First Attack” value ([4]; 30 mg/kg body weight oral) was 12.3 ± 1.9, the “Maximal Clinical Score, First Attack” value ([4]; 30 mg/kg body weight oral) was 3.5 ± 0.9 and the “Maximal Clinical Score, Second Attack (Relapse)” value ([4]; 30 mg/kg body weight oral) was 3.7 ± 0.6. The “Duration of Clinical Sign, First Attack” value ([4]; 30 mg/kg body weight oral) was 9.8 ± 3.3, the “Onset Date, Second Attack (Relapse)” value ([4]; 30 mg/kg body weight oral) was 26.3 ± 3.4 and the “onset date, symptoms and onset period at the first attack” value ([4]; 30 mg/kg body weight orally, vs control) was “distinct effects on the items were not found”. The “Onset Date, First Attack” value ([4]; 100 mg/kg body weight oral) was 13.6 ± 2.0, the “Maximal Clinical Score, First Attack” value ([4]; 100 mg/kg body weight oral) was 2.4 ± 1.3 and the “Maximal Clinical Score, Second Attack (Relapse)” value ([4]; 100 mg/kg body weight oral) was 3.0 ± 0.9. The “Duration of Clinical Sign, First Attack” value ([4]; 100 mg/kg body weight oral) was 5.7 ± 3.8, the “Onset Date, Second Attack (Relapse)” value ([4]; 100 mg/kg body weight oral) was 28.5 ± 4.7 and the “onset date at the first attack” value [4, 10] was “tendency to delay the onset date (no significant difference)”. For the same compound, the “onset period at the first attack” value [4, 10] was “shortening of onset period (p<0.05)” and the “symptoms (clinical scores) at the first attack” value [4, 10] was “symptom inhibition (p<0.05)”.
Work on `CCOc1cccc(C(=O)N[C@H](Cc2ccccc2)C(=O)NCC2CCN(Cc3ccc(Cl)cc3)CC2)c1` [Compd. No. 2091, 1-(4-chlorobenzyl)-4-[[N-(3-ethoxybenzoyl)-D-phenylalanyl]aminomethyl]piperidine] yielded an inhibition at 2 µM [5] of 50 to 80%.
With `Nc1cc(F)c(F)cc1C(=O)NCC(=O)NCC1CCN(Cc2ccc(Cl)cc2)CC1` [compound 1245] the “joint swelling (hindlimb footpad volume)” value [6] was “significantly inhibited joint swelling”, the “inhibition … of urinary proteins” value ([3]; 4th day after antiserum, 100 mg/kg orally twice a day) was 74% and the “inhibition … of urinary proteins” value [3, 7] was 85%. The “inhibition … of urinary proteins” value [3, 8] was 81%, the “inhibition … of urinary proteins” value [3, 9] was 82% and the “decrease of creatinine concentration in blood” value ([3]; 100 mg/kg orally twice a day) was 10%. For the same compound, the “Serum Creatinine Concentration on the 15th Day” value ([3]; WKY rats, Experiment 2, 100 mg/kg body weight orally twice a day, 15th day after injecting anti-glomerular basement membrane serum, mean ± spread) was 0.48 ± 0.04 mg/dL, the “Maximal Clinical Score” value ([4]; 300 mg/kg body weight oral, score 0-5, to 21 days after injection of the emulsion) was 2.5 ± 1.5 and the “Duration of Clinical Sign” value [4, 11] was 5.4 ± 2.4. The “Incidence (Number of Onset Animals/Number of Immunized Animals)” value [4, 11] was 17/19, the “onset date” value [4, 11] was 13.2 ± 2.4 and the onset date [4, 12] was “delay in onset date (p<0.05)”. For the same compound, the “symptoms (clinical scores)” value [4, 12] was “tendency to inhibit symptoms (no significant difference)”.
